The results in this text go back to ChEMBL document CHEMBL3046670, “Synthesis of Esters, Amides, N-Alkylamides and N, N-Dialkylamides of 2, 3-Dimethyl-5-(2, 5-disubstituted phenylaminocarbonyl)-6-pyrazinecarboxylic Acid and Their Phytotoxicity” (1992).

The source made the active and inactive calls. The calls are words filed in the database; no cut-off is given here.

Common to all, as to format: functional
Test [1] deals with Eleusine indica. In words: Inhibition of Eleusine indica seed germination at 100 ppm after 5 days relative to control. The conditions noted are these: for inhibition at 100 ppm: 120 h.
Test [2] relates to Lactuca sativa. In words: Inhibition of Lactuca sativa longifolia Lams (lettuce) seed germination at 50 ppm after 5 days relative to control. The following applies: for inhibition at 50 ppm: 120 h.
The subject of test [3] is Lactuca sativa. Kind of test: Inhibition of Lactuca sativa longifolia Lams (lettuce) seed germination at 100 ppm after 5 days relative to control. The conditions noted are these: for inhibition at 100 ppm: 120 h.
The test system of test [4] is Lactuca sativa. Kind of test: Inhibition of Lactuca sativa longifolia Lams (lettuce) seed germination at 300 ppm after 5 days relative to control. The following applies: for inhibition at 300 ppm: 120 h.
The test system of test [5] is Eleusine indica. In words: Inhibition of Eleusine indica seed germination at 50 ppm after 5 days relative to control. The conditions noted are these: for inhibition at 50 ppm: 120 h.
The subject of test [6] is Eleusine indica. In words: Inhibition of Eleusine indica germination at 300 ppm after 5 days relative to control. The following applies: for inhibition at 300 ppm: 120 h.
The next test concerns Sagittaria pygmaea. In words: Herbicidal activity against Sagittaria pygmaea at 50 g a.i./a measured after 3 weeks.
The test system of another test is Cyperus serotinus. Kind of test: Herbicidal activity against Cyperus serotinus at 50 g a.i./a measured after 3 weeks.
Test [7] deals with Schoenoplectiella juncoides. In words: Pre-emergence herbicidal activity against Schoenoplectiella juncoides at 50 g a.i./a measured after 3 weeks.
The test system of the next test is Echinochloa crus-galli. Kind of test: Herbicidal activity against Echinochloa crus-galli (barnyard grass) at 50 g a.i./a measured after 2 weeks.
Test [8] concerns Schoenoplectiella juncoides. In words: Herbicidal activity against Schoenoplectiella juncoides at 50 g a.i./a applied at one-leaf stage by foliar application measured after 3 weeks.
In the next test the test system is Oryza sativa. Kind of test: Herbicidal activity against Oryza sativa (rice) at 50 g a.i./a applied at one-leaf stage by foliar application measured after 3 weeks.

Broadly, the inhibition is the drop in the measured response relative to a control, in per cent. For the molecule `Cc1ccc(C)c(NC(=O)c2nc(C)c(C)nc2C(N)=O)c1`, the inhibition at 100 ppm with Eleusine indica [1] came out at 20%.
The same measure, in the same setting: as for `Cc1ccc(C)c(NC(=O)c2nc(C)c(C)nc2C(=O)OC(C)C)c1`, the figure is 20%.
With `CCN(CC)C(=O)c1nc(C)c(C)nc1C(=O)Nc1cc(C)ccc1C`, the inhibition entry with Lactuca sativa [2], in the test on Lactuca sativa [3], with Lactuca sativa [4], with Eleusine indica [5], in the test on Eleusine indica [1] and with Eleusine indica [6] was “inactive” throughout.
As for `CCC(C)NC(=O)c1nc(C)c(C)nc1C(=O)Nc1cc(C)ccc1C` (stereo not given), the inhibition at 50 ppm in the test with Lactuca sativa [2] worked out at 61%; in the test with Eleusine indica [5], 38%. Further, the inhibition at 100 ppm was 65% in the test with Lactuca sativa [3] and 41% in the test on Eleusine indica [1]. Besides, the results for the inhibition at 300 ppm in the test with Lactuca sativa [4] and in the test with Eleusine indica [6] were 72% and 44%, respectively. In addition, the Activity came out at 75% with Sagittaria pygmaea; 95% in the test with Cyperus serotinus; 100% in [7]; 70% in the test on Echinochloa crus-galli; 50% in [8]; 99% with Oryza sativa.
As for `CCCNC(=O)c1nc(C)c(C)nc1C(=O)Nc1cc(C)ccc1C`, the inhibition at 50 ppm in the test with Lactuca sativa [2] is 43%; with Eleusine indica [5], 42%. The inhibition at 100 ppm came out at 56% with Lactuca sativa [3] and 47% in the test with Eleusine indica [1]. In addition, the inhibition at 300 ppm in the test on Lactuca sativa [4] was determined as 54%; in the test with Eleusine indica [6] it was 47%. In addition, the Activity is on record as 0% in the test with Sagittaria pygmaea; 90% in the test on Cyperus serotinus; 80% in [7]; 50% with Echinochloa crus-galli; 40% in [8]; 95% with Oryza sativa.
On to `Cc1ccc(C)c(NC(=O)c2nc(C)c(C)nc2C(=O)N(C)C)c1`, for which the inhibition result in the test on Lactuca sativa [2], in the test with Lactuca sativa [3], in the test on Lactuca sativa [4], in the test with Eleusine indica [5], in the test with Eleusine indica [1] and with Eleusine indica [6] was “inactive” each time.
As for `Cc1ccc(C)c(NC(=O)c2nc(C)c(C)nc2C(=O)OCCC(C)C)c1`, the inhibition entry in the test with Lactuca sativa [2], in the test with Lactuca sativa [3], with Lactuca sativa [4], with Eleusine indica [5], with Eleusine indica [1] and in the test with Eleusine indica [6] was “inactive” each time.
On to `CCCN(CCC)C(=O)c1nc(C)c(C)nc1C(=O)Nc1cc(C)ccc1C`, for which the inhibition entry in the test on Lactuca sativa [2], in the test with Lactuca sativa [3], in the test with Lactuca sativa [4], in the test on Eleusine indica [5], in the test on Eleusine indica [1] and with Eleusine indica [6] was “inactive” each time.
For `Cc1ccc(C)c(NC(=O)c2nc(C)c(C)nc2C(=O)NC(C)C)c1`, the inhibition at 50 ppm with Lactuca sativa [2] turned out to be 58%; in the test on Eleusine indica [5] it was 30%. Moreover, the inhibition at 100 ppm with Lactuca sativa [3] came out at 66%; in the test with Eleusine indica [1] it was 30%. For the same molecule, the values for the inhibition at 300 ppm in the test with Lactuca sativa [4] and with Eleusine indica [6] were 68% and 36%, respectively. Besides, the Activity came out at 0% in the test on Sagittaria pygmaea; 0% in the test with Cyperus serotinus; 50% in test [7]; 0% with Echinochloa crus-galli; 30% in [8]; 70% with Oryza sativa.
Take `Cc1nc(C(=O)Nc2cc(Cl)ccc2Cl)c(C(=O)OC(C)C)nc1C`: in the test with Eleusine indica [1], the inhibition result was “inactive”.
Turning to `Cc1ccc(C)c(NC(=O)c2nc(C)c(C)nc2C(=O)NCCC(C)C)c1`, the results for the inhibition at 50 ppm with Lactuca sativa [2] and with Eleusine indica [5] were 43% and 32%, respectively. Also, the inhibition at 100 ppm in the test on Lactuca sativa [3] is 41%; in the test on Eleusine indica [1] it was 34%. Also, the inhibition at 300 ppm with Lactuca sativa [4] came out at 47%; with Eleusine indica [6], 40%. The Activity is 85% in the test with Sagittaria pygmaea; 80% in the test on Cyperus serotinus; 100% in test [7]; 70% in the test on Echinochloa crus-galli; 20% in test [8]; 99% in the test on Oryza sativa.
Consider `Cc1ccc(C)c(NC(=O)c2nc(C)c(C)nc2C(=O)OCC(C)C)c1`, for which the inhibition entry in the test with Lactuca sativa [2], in the test on Lactuca sativa [3], with Lactuca sativa [4], in the test on Eleusine indica [5], in the test with Eleusine indica [1] and in the test on Eleusine indica [6] was “inactive” in each case.
As for `CCC(C)OC(=O)c1nc(C)c(C)nc1C(=O)Nc1cc(C)ccc1C` (stereo not given), the values for the inhibition at 100 ppm in the test on Lactuca sativa [3] and in the test on Eleusine indica [1] were 32% and 13%, respectively. The figures for the inhibition at 300 ppm in the test on Lactuca sativa [4] and in the test with Eleusine indica [6] were 36% and 15%, respectively.
With `CCCOC(=O)c1nc(C)c(C)nc1C(=O)Nc1cc(Cl)ccc1Cl`, in the test with Eleusine indica [1], the inhibition entry was “inactive”.
Same read-out and setting: next, `COC(=O)c1nc(C)c(C)nc1C(=O)Nc1cc(Cl)ccc1Cl`: “inactive”.
On to `CCCCCOC(=O)c1nc(C)c(C)nc1C(=O)Nc1cc(C)ccc1C`, for which the inhibition result in the test on Lactuca sativa [2], with Lactuca sativa [3], in the test with Lactuca sativa [4], with Eleusine indica [5], in the test on Eleusine indica [1] and in the test with Eleusine indica [6] was “inactive” each time.
As for `CCCCOC(=O)c1nc(C)c(C)nc1C(=O)Nc1cc(C)ccc1C`, the inhibition entry in the test with Lactuca sativa [2], with Lactuca sativa [3], in the test on Lactuca sativa [4], in the test on Eleusine indica [5], with Eleusine indica [1] and with Eleusine indica [6] was “inactive” in each case.
`Cc1ccc(C)c(NC(=O)c2nc(C)c(C)nc2C(=O)NCC(C)C)c1`: the results for the inhibition at 50 ppm with Lactuca sativa [2] and in the test on Eleusine indica [5] were 55% and 53%, respectively. The inhibition at 100 ppm in the test on Lactuca sativa [3] was found to be 59%; with Eleusine indica [1], 47%. The results for the inhibition at 300 ppm in the test on Lactuca sativa [4] and in the test on Eleusine indica [6] were 62% and 50%, respectively. The Activity with Sagittaria pygmaea is on record as 95%; with Cyperus serotinus, 100%; in test [7], 10%; in the test on Echinochloa crus-galli, 90%; in [8], 80%; with Oryza sativa it was 99%.
As for `CCCC(C)OC(=O)c1nc(C)c(C)nc1C(=O)Nc1cc(C)ccc1C` (stereo not given), the inhibition entry in the test on Lactuca sativa [2] and in the test with Eleusine indica [5] was “inactive” each time. Besides, the values for the inhibition at 100 ppm with Lactuca sativa [3] and in the test on Eleusine indica [1] were 44% and 32%, respectively. Also, the figures for the inhibition at 300 ppm in the test on Lactuca sativa [4] and in the test on Eleusine indica [6] were 50% and 33%, respectively.
With `CCOC(=O)c1nc(C)c(C)nc1C(=O)Nc1cc(Cl)ccc1Cl`, in the test with Eleusine indica [1], the inhibition entry was “inactive”.
As for `CCCCNC(=O)c1nc(C)c(C)nc1C(=O)Nc1cc(C)ccc1C`, the values for the inhibition at 100 ppm with Lactuca sativa [3] and in the test with Eleusine indica [1] were 35% and 39%, respectively. Moreover, the inhibition at 300 ppm in the test on Lactuca sativa [4] was determined as 34%; with Eleusine indica [6], 40%. In addition, the Activity is listed as 90% in the test on Sagittaria pygmaea; 100% in the test with Cyperus serotinus; 100% in test [7]; 80% with Echinochloa crus-galli; 60% in test [8]; 100% with Oryza sativa.
For the molecule `CCCCCN(CCCCC)C(=O)c1nc(C)c(C)nc1C(=O)Nc1cc(C)ccc1C`, the inhibition entry in the test with Lactuca sativa [2], in the test with Lactuca sativa [3], in the test on Lactuca sativa [4], with Eleusine indica [5], with Eleusine indica [1] and in the test on Eleusine indica [6] was “inactive” each time.
For the molecule `CCCCN(CCCC)C(=O)c1nc(C)c(C)nc1C(=O)Nc1cc(C)ccc1C`, the inhibition result with Lactuca sativa [2], with Lactuca sativa [3], in the test with Lactuca sativa [4], with Eleusine indica [5], in the test on Eleusine indica [1] and with Eleusine indica [6] was “inactive” in each case.
